From patent US20120122843A1, “Compounds and Their Use for Treatment of Amyloid Beta-Related Diseases” (ASTRAZENECA AB, priority 2010, published 2012)

What was measured:
Notch = assay: Release and translocation of Notch intracellular domain into the nucleus, HEK/AENotch cells (NICD immunostaining, ImageXpress); type: cell-based, Human; settings: 3 μM Lactacystin, 4-6 h incubation, nucleus/cytosol NICD fluorescence ratio
Experimental: The level of activity of the compounds on release and translocation of Notch intracellular domain into the cell nucleus was tested using the following method:
Compounds were diluted in 100% DMSO and stored at […] prior to use. Human Embryonic Kidney cell line overexpressing Notchl-E-human-myc construct (referred to as HEK/AENotch) were cultured in T75 cm^2 or T225 cm^2 cell culture flasks using Dulbecco's Modified Eagles medium (DMEM) supplemented with […] glucose, Na-pyruvate and GlutaMAX with 10% FBS, 100 U/ml penicillin-streptomycin (PEST) respectively, 1× non-essential amino acids (NEAA), […] Hepes and 100 μg/ml Hygromycin. Cells at about 80% confluence were washed with PBS, detached from the flask bottom using 1× Trypsin/EDTA diluted in PBS, re-suspended in cell media and plated in 384-well plates at about 10000 cells/well, in 25 μL cell media. Optionally, cryo-preserved cells (frozen and stored at −140° C. in 90% cell media and 10% DMSO) were thawed, washed and plated as above. Next the cells were incubated for 15-24 h at 37° C. and 5% CO2, after which cell medium was replaced with fresh medium containing 3 μM Lactacystin and test compound diluted ×200 from prepared compound plate giving 0.5% final DMSO concentration, and the highest compound concentration typically 25 μM. Cells were then incubated 4-6 h with test compound before being fixed, washed and immunostained with NICD antibody (rabbit Notch 1 (C-20)). Image acquisition of cytosolic/membrane and nuclear fluorescence as well as subsequent analysis of the nucleus and cytosolic fluorescence ratio was carried out using ImageXpress. Potential cytotoxic effects of the compounds were usually assayed by analysis of nucleus area or cell number.

Aβ42 = Aβ42 release from HEK cells stably expressing APPswe (MSD electrochemiluminescence); type: cell-based, Human; settings: 4-6 h incubation with test compound, Aβ42 secreted to cell medium
Experimental: The level of activity of the compounds on Aβ formation was tested using the following method:
Compounds were diluted in 100% DMSO and stored at […] prior to use. Human Embryonic Kidney (HEK) cell line stably expressing APP with the Swedish mutation (APPswe) were cultured using Dulbecco's Modified Eagles medium (DMEM) supplied with […] glucose, Na-pyruvate and GlutaMAX with 10% FBS, 100 U/ml penicillin-streptomycin (PEST) respectively, 1× non-essential amino acids (NEAA), […] Hepes, 100 μg/ml Zeocine. Cells at about 80% confluence were washed with PBS, detached from culture flasks using 1× Trypsin/EDTA diluted in PBS, re-suspended in cell media and plated in 384-well poly-d-lysine coated cell culture plates at about 10000-15000 cells/well, in 25 μL cell media. Optionally, cryo-preserved cells (frozen and stored at −140° C. in 90% cell media and 10% DMSO) were thawed, washed and plated as above. Next the cells were incubated for 15-24 h at 37° C. and 5% CO2, after which cell medium was changed. Fresh medium containing test compound diluted ×200 from prepared compound plate was added to the cells before further incubation for 4-6 hours at 37° C. and 5% CO2. After incubation with test compound the amount of Aβ peptides, including Aβ42, Aβ40, Aβ39, Aβ38 and Aβ37, as well as total Aβ levels, secreted to cell medium was analyzed using the electrochemiluminescence assay technology from Meso Scale Discovery (MSD), in combination with specific antibodies raised against the different Aβ peptides. Aβ42, Aβ40 and Aβ38 antibodies were purchased from MSD and Aβ37 and Aβ39 were made in house. Total Aβ was measured using a combination of 6E10 and 4G8 anti Aβ antibodies from MSD. Potential cytotoxic effects of the compounds were usually assayed by measuring the ATP content (ViaLight) from cell lysate.

[1] = Homo sapiens, HEK293, HEK cells expressing APPswe

Compound | IC50 (Notch; Homo sapiens) [nM] | IC50 (Aβ42; HEK cells expressing APPswe) [nM] | IC50 (Notch) [nM] | IC50 (Aβ42; [1]) [nM]
COc1nc(Nc2ccc3c(n2)OC(c2nc(C)cs2)CN(C)C3)ccc1-c1cnn(C)c1 (single isomer, unassigned; (-)) [Example 11, (−)-N-(6-Methoxy-5-(1-methyl-1H-pyrazol-4-yl)pyridin-2-yl)-4-methyl-2-(4-methylthiazol-2-yl)-2,3,4,5-tetrahydropyrido[3,2-f][1,4]oxazepin-8-amine] | 1440 | 14 |  | 
COc1nc(Nc2ccc3c(n2)OC(CC(F)(F)F)CN(C)C3C)ccc1-c1cnn(C)c1 (single isomer, unassigned) [Example 35, N-(6-Methoxy-5-(1-methyl-1H-pyrazol-4-yl)pyridin-2-yl)-4,5-dimethyl-2-(2,2,2-trifluoroethyl)-2,3,4,5-tetrahydropyrido[3,2-f][1,4]oxazepin-8-amine] |  | 12 | > 25000 | 
Cc1cn(-c2ccc(Nc3cc(C)c4c(n3)OC(CC(F)(F)F)CN(C)C4)nc2)cn1 (stereo not drawn) [Example 1, 4,6-Dimethyl-N-(5-(4-methyl-1H-imidazol-1-yl)pyridin-2-yl)-2-(2,2,2-trifluoroethyl)-2,3,4,5-tetrahydropyrido[3,2-f][1,4]oxazepin-8-amine] | > 50000 |  |  | 225
COc1nc(Nc2cc(C)c3c(n2)OC(C2CCCO2)CN(C)C3)ccc1-c1cnn(C)c1 (single isomer, unassigned) [Example 25, N-(6-Methoxy-5-(1-methyl-1H-pyrazol-4-yl)pyridin-2-yl)-4,6-dimethyl-2-(tetrahydrofuran-2-yl)-2,3,4,5-tetrahydropyrido[3,2-f][1,4]oxazepin-8-amine] | > 7900 |  |  | 73
COc1nc(Nc2ccc3c(n2)OC(CCC(F)(F)F)CN(C)C3)ccc1-c1cnn(C)c1 (single isomer, unassigned; (+)) [Example 57, (+)-N-[6-Methoxy-5-(1-methylpyrazol-4-yl)-2-pyridyl]-4-methyl-2-(3,3,3-trifluoropropyl)-3,5-dihydro-2H-pyrido[3,2-f][1,4]oxazepin-8-amine] |  | 5 | > 11500 | 
COc1nc(Nc2ccc3c(n2)O[C@H](c2ccc(F)cn2)CN(C)C3C)ccc1-n1cnc(C)c1 (single isomer, unassigned; (-)) [Example 53] |  | 11 | > 7900 | 
COc1nc(Nc2ccc3c(n2)O[C@H](c2ccccc2)CN(C)C3)ccc1-c1cn[nH]c1 [Example 56, (2R)—N-[6-Methoxy-5-(1H-pyrazol-4-yl)-2-pyridyl]-4-methyl-2-phenyl-3,5-dihydro-2H-pyrido[3,2-f][1,4]oxazepin-8-amine] | > 25000 |  |  | 98
COc1nc(Nc2ccc3c(n2)OC(C2CC2)CN(C)C3C)ccc1-c1cnn(C)c1 (single isomer, unassigned) [Example 17, 2-Cyclopropyl-N-(6-methoxy-5-(1-methyl-1H-pyrazol-4-yl)pyridin-2-yl)-4,5-dimethyl-2,3,4,5-tetrahydropyrido[3,2-f][1,4]oxazepin-8-amine] | > 7900 | 14 |  | 
COc1nc(Nc2ccc3c(n2)OC(C2CC2)CN(C)C3C)ccc1-c1cnn(C)c1 (single isomer, unassigned) [Example 18, 2-Cyclopropyl-N-(6-methoxy-5-(1-methyl-1H-pyrazol-4-yl)pyridin-2-yl)-4,5-dimethyl-2,3,4,5-tetrahydropyrido[3,2-f][1,4]oxazepin-8-amine] |  | 37 | > 7900 | 
Cc1cn(-c2ccc(Nc3ccc4c(n3)O[C@H](c3ccccc3)CN(C)C4)nc2)cn1 [Example 14, (R)-4-Methyl-N-(5-(4-methyl-1H-imidazol-1-yl)pyridin-2-yl)-2-phenyl-2,3,4,5-tetrahydropyrido[3,2-f][1,4]oxazepin-8-amine] | > 50000 |  |  | 24
COc1nc(Nc2ccc3c(n2)OC(c2ncc(C)s2)CN(C)C3)ccc1-n1cnc(C)c1 (single isomer, unassigned; (-)) [Example 65, (−)-N-(6-Methoxy-5-(4-methyl-1H-imidazol-1-yl)pyridin-2-yl)-4-methyl-2-(5-methylthiazol-2-yl)-2,3,4,5-tetrahydropyrido[3,2-f][1,4]oxazepin-8-amine] | > 25000 | 9 |  | 
COc1nc(Nc2ccc3c(n2)OC(c2ncc(C)s2)CN(C)C3)ccc1-n1cnc(C)c1 (single isomer, unassigned; (+)) [Example 66, (+)-N-(6-Methoxy-5-(4-methyl-1H-imidazol-1-yl)pyridin-2-yl)-4-methyl-2-(5-methylthiazol-2-yl)-2,3,4,5-tetrahydropyrido[3,2-f][1,4]oxazepin-8-amine] |  | 38 | > 25000 | 
COc1nc(Nc2ccc3c(n2)O[C@H](c2ccc(F)cn2)CN(C)C3C)ccc1-c1cnn(C)c1 (single isomer, unassigned) [Example 50] |  | 60 | 2310 | 
COc1nc(Nc2ccc3c(n2)O[C@H](c2nc(C)cs2)CN(C)C3)c(F)cc1-c1cnn(C)c1 [Example 54, (2S)—N-[3-Fluoro-6-methoxy-5-(1-methylpyrazol-4-yl)-2-pyridyl]-4-methyl-2-(4-methylthiazol-2-yl)-3,5-dihydro-2H-pyrido[3,2-f][1,4]oxazepin-8-amine] | 6490 |  |  | 18
Cc1ncn(-c2ccc(Nc3ccc4c(n3)OC(c3cccc(Cl)c3)CN(C)C4)nc2)n1 (stereo not drawn) [Example 23, 2-(3-Chlorophenyl)-4-methyl-N-(5-(3-methyl-1H-1,2,4-triazol-1-yl)pyridin-2-yl)-2,3,4,5-tetrahydropyrido[3,2-f][1,4]oxazepin-8-amine] | > 2500 |  |  | 55
COc1nc(Nc2ccc3c(n2)OC(CCC(F)(F)F)CN(C)C3)ccc1-c1cnn(C)c1 (single isomer, unassigned; (-)) [Example 58, (−)-N-[6-Methoxy-5-(1-methylpyrazol-4-yl)-2-pyridyl]-4-methyl-2-(3,3,3-trifluoropropyl)-3,5-dihydro-2H-pyrido[3,2-f][1,4]oxazepin-8-amine] |  | 18 | > 25000 | 
COc1nc(Nc2ccc3c(n2)OC(CC(F)(F)F)CN(C)C3)ccc1-n1cnc(C)c1 (stereo not drawn) [Example 6, N-(6-Methoxy-5-(4-methyl-1H-imidazol-1-yl)pyridin-2-yl)-4-methyl-2-(2,2,2-trifluoroethyl)-2,3,4,5-tetrahydropyrido[3,2-f][1,4]oxazepin-8-amine] | > 7900 |  |  | 18
COc1nc(Nc2ccc3c(n2)O[C@H](c2ccc(F)cn2)CN(C)C3C)ccc1-c1cnn(C)c1 (single isomer, unassigned) [Example 51] |  | 19 | > 25000 | 
COc1nc(Nc2ccc3c(n2)OC(c2ncc(C)s2)CN(C)C3)ccc1-n1cnc(C)c1 (stereo not drawn) [Example 40, N-(6-Methoxy-5-(4-methyl-1H-imidazol-1-yl)pyridin-2-yl)-4-methyl-2-(5-methylthiazol-2-yl)-2,3,4,5-tetrahydropyrido[3,2-f][1,4]oxazepin-8-amine] | 3640 |  |  | 9
COc1nc(Nc2ccc3c(n2)OC(CC(F)(F)F)CN(C)C3)ccc1-c1cc(C)ncn1 (stereo not drawn) [Example 7, [6-Methoxy-5-(6-methyl-pyrimidin-4-yl)-pyridin-2-yl]-[6-methyl-8-(2,2,2-trifluoro-ethyl)-5,6,7,8-tetrahydro-9-oxa-1,6-diaza-benzocyclohepten-2-yl]-amine] | > 25000 |  |  | 135
COc1nc(Nc2cc(C)c3c(n2)OC(c2nc(C)cs2)CN(C)C3)ccc1-c1cnn(C)c1 (single isomer, unassigned) [Example 22, N-(6-Methoxy-5-(1-methyl-1H-pyrazol-4-yl)pyridin-2-yl)-4,6-dimethyl-2-(4-methylthiazol-2-yl)-2,3,4,5-tetrahydropyrido[3,2-f][1,4]oxazepin-8-amine] | 1680 | 10 |  | 
